Measured values published in patent US11732256B2, “Multivalent glycopeptides that tightly bind to target proteins” (Brandeis University, priority 2013, dated 2023).

Test system: HIV broadly neutralizing antibody 2G12
Test: Radioactive 2G12-glycopeptide binding assay with protein G magnetic beads (binding curve and KD determination)
Settings: for Fmax [%] / Kd: Table 6 mutants/truncations, radioactive binding assay
Description: The sequences were obtained by cloning non-selected library DNA. […] FIG. 9B is an SDS-PAGE analysis of the click reaction of the non-selected peptides. Both peptides were transcribed and translated from PCR-amplified DNA in Pure System that contains 0.02 mg/mL T7 RNA polymerase and additional 1 mM each NTP. The peptides were labeled with 3H-histidine and the bands were visualized by fluorography.
For round 10 winners, 0.12-0.2 nM radioactive glycopeptides were incubated with 0, 0.25, 0.5, 1, 2, 4, 8, 16, 32 or 64 nM 2G12 in 40 μL of selection buffer at room temperature for 1 h. Then, the solution was added to 0.12 mg of pre-equilibrated Dynabeads Protein G and tumbled at room temperature for 30 min. The supernatant was removed and the beads were washed with 3×40 μL of selection buffer. The radioactivities of the supernatant and wash solutions were measured by liquid scintillation counting as unbound fractions. […] The beads were resuspended in 40 μL of selection buffer, heated at 70° C. for 30 min to elute the bound glycopeptides, chilled on ice for 5 min, and tumbled at room temperature for 10 min. The supernatant was removed, and the beads were washed with 40 μL of selection buffer and resuspended in 40 μL of selection buffer. The radioactivities of these solutions and suspensions were measured by liquid scintillation counting separately and the values were combined as apparent bound fractions. […] All experiments were done at least in triplicate. KDs were calculated as described in the footnote of Table 4 (below).

| Compound | Tolerance of Cys substitutions for 2G12 binding (Cys mutated to Ser) | Fmax [%] | Kd [nM] |
| --- | --- | --- | --- |
| CC[C@H](C)[C@H](NC(=O)[C@H](CCC(N)=O)NC(=O)[C@H](CCCCN)NC(=O)[C@H](CC(C)C)NC(=O)[C@H](Cc1c[nH]cn1)NC(=O)[C@H](CC(C)C)NC(=O)[C@@H](NC(=O)[C@H](CC(=O)O)NC(=O)[C@H](CCc1cn(C2CCC(OC3O[C@H](CO[C@H]4O[C@H](CO[C@H]5O[C@H](CO)[C@@H](O)[C@H](O)[C@@H]5O[C@H]5O[C@H](CO)[C@@H](O)[C@H](O)[C@@H]5O)[C@@H](O)[C@H](O[C@H]5O[C@H](CO)[C@@H](O)[C@H](O)[C@@H]5O[C@H]5O[C@H](CO)[C@@H](O)[C@H](O)[C@@H]5O)[C@@H]4O)[C@@H](O)[C@H](O[C@H]4O[C@H](CO)[C@@H](O)[C@H](O)[C@@H]4O[C@H]4O[C@H](CO)[C@@H](O)[C@H](O)[C@@H]4O[C@H]4O[C@H](CO)[C@@H](O)[C@H](O)[C@@H]4O)[C@@H]3O)CC2)nn1)NC=O)[C@@H](C)O)C(=O)NCC(=O)NCC(=O)N[C@@H](CCc1cn(C2CCC(OC3O[C@H](CO[C@H]4O[C@H](CO[C@H]5O[C@H](CO)[C@@H](O)[C@H](O)[C@@H]5O[C@H]5O[C@H](CO)[C@@H](O)[C@H](O)[C@@H]5O)[C@@H](O)[C@H](O[C@H]5O[C@H](CO)[C@@H](O)[C@H](O)[C@@H]5O[C@H]5O[C@H](CO)[C@@H](O)[C@H](O)[C@@H]5O)[C@@H]4O)[C@@H](O)[C@H](O[C@H]4O[C@H](CO)[C@@H](O)[C@H](O)[C@@H]4O[C@H]4O[C@H](CO)[C@@H](O)[C@H](O)[C@@H]4O[C@H]4O[C@H](CO)[C@@H](O)[C@H](O)[C@@H]4O)[C@@H]3O)CC2)nn1)C(=O)N1CCC[C@H]1C(=O)N[C@@H](CC(N)=O)C(=O)N[C@@H](CS)C(=O)N[C@H](C(=O)N[C@H](C(=O)N[C@@H](CCC(N)=O)C(=O)N[C@@H](CCC(N)=O)C(=O)N[C@@H](CC(=O)O)C(=O)N[C@H](C(=O)N[C@@H](CCCNC(=N)N)C(=O)N[C@@H](CCc1cn(C2CCC(OC3O[C@H](CO[C@H]4O[C@H](CO[C@H]5O[C@H](CO)[C@@H](O)[C@H](O)[C@@H]5O[C@H]5O[C@H](CO)[C@@H](O)[C@H](O)[C@@H]5O)[C@@H](O)[C@H](O[C@H]5O[C@H](CO)[C@@H](O)[C@H](O)[C@@H]5O[C@H]5O[C@H](CO)[C@@H](O)[C@H](O)[C@@H]5O)[C@@H]4O)[C@@H](O)[C@H](O[C@H]4O[C@H](CO)[C@@H](O)[C@H](O)[C@@H]4O[C@H]4O[C@H](CO)[C@@H](O)[C@H](O)[C@@H]4O[C@H]4O[C@H](CO)[C@@H](O)[C@H](O)[C@@H]4O)[C@@H]3O)CC2)nn1)C(=O)N[C@H](C(=O)N[C@@H](CO)C(=O)N[C@H](C(=O)N1CCC[C@H]1C(=O)N[C@@H](Cc1ccc(O)cc1)C(=O)N[C@H](C(=O)N[C@@H](Cc1ccc(O)cc1)C(=O)N[C@H](C(=O)N[C@@H](Cc1c[nH]c2ccccc12)C(=O)N1CCC[C@H]1C(=O)NCC(=O)N[C@@H](CO)C(=O)NCC(=O)N[C@@H](CO)C(=O)N[C@@H](CC(C)C)C(=O)NCC(=O)N[C@@H](Cc1c[nH]cn1)C(=O)N[C@@H](Cc1c[nH]cn1)C(=O)N[C@@H](Cc1c[nH]cn1)C(=O)N[C@@H](Cc1c[nH]cn1)C(=O)N[C@@H](Cc1c[nH]cn1)C(=O)N[C@@H](Cc1c[nH]cn1)C(=O)N[C@@H](CCCNC(=N)N)C(=O)N[C@@H](CC(=O)O)C(=O)N[C@@H](Cc1ccc(O)cc1)C(=O)N[C@@H](CCCCN)C(=O)N[C@@H](CC(=O)O)C(=O)N[C@@H](CC(=O)O)C(=O)N[C@@H](CC(=O)O)C(=O)N[C@@H](CC(=O)O)C(=O)N[C@@H](CCCCN)C(=O)O)[C@@H](C)O)[C@@H](C)O)[C@@H](C)CC)[C@@H](C)O)C(C)C)[C@@H](C)O)[C@@H](C)CC (some centres unmarked) [Clone 10F3, XDTLHLKQIGGXPNCITQQDVRXTSIPYTYTWP] | tolerated |  |  |
| XDTLHLKQIGGXPNSITQQDVRXTSIPYTYTWP [Clone 10F3-C15S] |  | 63 | 2.91 |
| CC[C@H](C)[C@H](NC(=O)[C@H](CCCNC(=N)N)NC(=O)[C@H](CCCNC(=N)N)NC(=O)CNC(=O)[C@H](CC(=O)O)NC(=O)[C@H](CC(N)=O)NC(=O)[C@H](CC(C)C)NC(=O)[C@@H](NC(=O)[C@H](CCc1cn(C2CCC(OC3O[C@H](CO[C@H]4O[C@H](CO[C@H]5O[C@H](CO)[C@@H](O)[C@H](O)[C@@H]5O[C@H]5O[C@H](CO)[C@@H](O)[C@H](O)[C@@H]5O)[C@@H](O)[C@H](O[C@H]5O[C@H](CO)[C@@H](O)[C@H](O)[C@@H]5O[C@H]5O[C@H](CO)[C@@H](O)[C@H](O)[C@@H]5O)[C@@H]4O)[C@@H](O)[C@H](O[C@H]4O[C@H](CO)[C@@H](O)[C@H](O)[C@@H]4O[C@H]4O[C@H](CO)[C@@H](O)[C@H](O)[C@@H]4O[C@H]4O[C@H](CO)[C@@H](O)[C@H](O)[C@@H]4O)[C@@H]3O)CC2)nn1)NC=O)C(C)C)C(=O)N[C@H](C(=O)N[C@@H](CCC(N)=O)C(=O)N[C@@H](CCc1cn(C2CCC(OC3O[C@H](CO[C@H]4O[C@H](CO[C@H]5O[C@H](CO)[C@@H](O)[C@H](O)[C@@H]5O[C@H]5O[C@H](CO)[C@@H](O)[C@H](O)[C@@H]5O)[C@@H](O)[C@H](O[C@H]5O[C@H](CO)[C@@H](O)[C@H](O)[C@@H]5O[C@H]5O[C@H](CO)[C@@H](O)[C@H](O)[C@@H]5O)[C@@H]4O)[C@@H](O)[C@H](O[C@H]4O[C@H](CO)[C@@H](O)[C@H](O)[C@@H]4O[C@H]4O[C@H](CO)[C@@H](O)[C@H](O)[C@@H]4O[C@H]4O[C@H](CO)[C@@H](O)[C@H](O)[C@@H]4O)[C@@H]3O)CC2)nn1)C(=O)N[C@@H](CO)C(=O)N[C@@H](CS)C(=O)N[C@@H](CCC(=O)O)C(=O)N[C@@H](CC(C)C)C(=O)N1CCC[C@H]1C(=O)N[C@@H](CCc1cn(C2CCC(OC3O[C@H](CO[C@H]4O[C@H](CO[C@H]5O[C@H](CO)[C@@H](O)[C@H](O)[C@@H]5O[C@H]5O[C@H](CO)[C@@H](O)[C@H](O)[C@@H]5O)[C@@H](O)[C@H](O[C@H]5O[C@H](CO)[C@@H](O)[C@H](O)[C@@H]5O[C@H]5O[C@H](CO)[C@@H](O)[C@H](O)[C@@H]5O)[C@@H]4O)[C@@H](O)[C@H](O[C@H]4O[C@H](CO)[C@@H](O)[C@H](O)[C@@H]4O[C@H]4O[C@H](CO)[C@@H](O)[C@H](O)[C@@H]4O[C@H]4O[C@H](CO)[C@@H](O)[C@H](O)[C@@H]4O)[C@@H]3O)CC2)nn1)C(=O)N[C@H](C(=O)N[C@@H](CCCNC(=N)N)C(=O)N[C@@H](CCCNC(=N)N)C(=O)N[C@@H](CO)C(=O)NCC(=O)N[C@@H](CO)C(=O)NCC(=O)N[C@@H](CO)C(=O)N[C@@H](CC(C)C)C(=O)NCC(=O)N[C@@H](Cc1c[nH]cn1)C(=O)N[C@@H](Cc1c[nH]cn1)C(=O)N[C@@H](Cc1c[nH]cn1)C(=O)N[C@@H](Cc1c[nH]cn1)C(=O)N[C@@H](Cc1c[nH]cn1)C(=O)N[C@@H](Cc1c[nH]cn1)C(=O)N[C@@H](CCCNC(=N)N)C(=O)N[C@@H](CC(=O)O)C(=O)N[C@@H](Cc1ccc(O)cc1)C(=O)N[C@@H](CCCCN)C(=O)N[C@@H](CC(=O)O)C(=O)N[C@@H](CC(=O)O)C(=O)N[C@@H](CC(=O)O)C(=O)N[C@@H](CC(=O)O)C(=O)N[C@@H](CCCCN)C(=O)O)C(C)C)C(C)C (some centres unmarked) [Clone 10F5-Δ11, XVLNDGRRIVQXSCELPXVRRS] |  | 17 | > 200 |
